Like-named read-outs stand apart in the source and are kept apart here.

These results are taken from US5298508A, “Irreversible inhibitors of adenosine receptors” (priority 1992, dated 1994).

The target of data set [1] is T1, A1 adenosine receptors (Rattus norvegicus, UniProt P25099).
T1 construct: A1 adenosine receptors in rat cerebral cortex membranes; from tissue; host or cells: rat cerebral cortex membranes
T1 sequence (P25099 1-326): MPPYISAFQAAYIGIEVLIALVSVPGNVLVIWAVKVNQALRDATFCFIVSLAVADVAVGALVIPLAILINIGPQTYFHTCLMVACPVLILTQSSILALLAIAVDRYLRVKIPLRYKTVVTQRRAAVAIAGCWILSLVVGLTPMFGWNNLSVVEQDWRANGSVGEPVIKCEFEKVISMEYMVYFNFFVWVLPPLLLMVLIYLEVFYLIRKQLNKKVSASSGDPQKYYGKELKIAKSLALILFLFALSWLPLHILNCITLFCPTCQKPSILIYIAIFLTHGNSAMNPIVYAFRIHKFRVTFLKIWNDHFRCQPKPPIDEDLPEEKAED
The data set is described as follows: inhibition of binding of [3H]N6-phenylisopropyladenosine ([3H]PIA) to A1 adenosine receptors in rat cerebral cortex membranes. On the procedure: Ukena et al., FEBS Letters 209;122, 1986.
For the biochemical assays, stock solutions of xanthines in the millimolar concentration range in dimethylsulfoxide were prepared and stored frozen. The solutions were warmed to 50° C. prior to dilution in aqueous medium. […] Acad. Sci. USA, 83:4089, 1986. Inhibition of binding by a range of concentrations of a xanthine or adenosine derivative was assessed in triplicate in at least three separate experiments.

Data set [2] concerns the target T2, central A1 receptors (Bos taurus, UniProt P28190).
T2 construct: A1 -adenosine receptors in membranes form calf brain; from tissue; host or cells: calf brain membranes
T2 sequence (P28190 1-326): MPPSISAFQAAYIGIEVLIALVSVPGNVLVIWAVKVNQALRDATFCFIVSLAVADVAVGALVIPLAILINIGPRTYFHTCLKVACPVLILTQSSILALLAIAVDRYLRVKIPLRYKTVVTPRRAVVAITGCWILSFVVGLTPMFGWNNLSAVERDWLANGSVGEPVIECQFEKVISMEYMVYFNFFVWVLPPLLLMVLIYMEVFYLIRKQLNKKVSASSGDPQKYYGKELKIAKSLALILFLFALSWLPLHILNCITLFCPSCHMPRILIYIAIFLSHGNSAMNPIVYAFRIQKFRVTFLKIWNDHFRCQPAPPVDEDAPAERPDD
The data set can be described thus: inhibition of radioligand binding at central A1 receptors, calf brain membranes. An excerpt:
^b against [^125 I]APNEA (i.e. N^6
^b against [^125 I]APNEA;
The compounds, at concentrations relative to the Ki -values obtained, were screened for the ability to inhibit competitive binding of the radioligands [^3 H]PIA to rat brain membranes and [^3 H]XAC to bovine brain membranes, a shown in Table 1.

Data set [3] concerns the target T3, central A1 receptors (Rattus norvegicus, UniProt P25099).
T3 construct: A1 -adenosine receptors in rat brain membranes; from tissue; host or cells: rat brain membranes
T3 sequence (P25099 1-326): T1 sequence (P25099 1-326)
The data set is classed as binding.

The test system of data set [4] is A1-adenosine receptors. The data set is described as follows: irreversible inhibition of [3H]XAC binding sites after one hour incubation and washout, bovine brain membranes. Further details: species or system bovine (calf).
For data set [5], the target named is T4, rat brain membranes (Rattus norvegicus, UniProt P25099).
T4 construct: A1 -adenosine receptors in rat brain membranes; from tissue; host or cells: rat brain membranes
T4 sequence (P25099 1-326): T1 sequence (P25099 1-326)
The data set is described as follows: inhibition of [3H]XAC binding to rat brain membranes (blocking experiments).

Data set [6] deals with A1-adenosine receptors. The data set can be described thus: covalent labeling of solubilized central A1 receptor preparation, SDS electrophoresis. The data set is classed as binding. The following applies: tritiated 4b, SDS gel, with or without high concentration of R-PIA.
Text: An SDS electrophoresis gel separated proteins from a solubilized central A1 receptor preparation, pretreated with compound 4b (lane 1).
Data set [7] is described as follows: stability to storage. The data set is classed as physicochemical. The conditions noted are these: result in words. As for the experimental part:
A modification of the procedure of Newman et al., J. Med. Chem. 30: 1901, 1987, was used. In this procedure, 1,3-phenylenediamine, 0.211 grams, 1.95 mmol, was dissolved in 80 ml chloroform. Thirty ml water and 0.38 gram, 4.5 mmol, sodium bicarbonate was added, and the mixture was stirred vigorously. After ten minutes, 0.4 ml, 5.2 mmol of freshly distilled thiophosgene was added. After one hour, the phases were separated, and the organic layer was dried over sodium sulfate and evaporated. The residue was triturated with ether:petroleum ether, 1:1, and filtered. The filtrate was evaporated, leaving the product as a white solid (0.30 g, 81% yield), melting at 50.5°-51° C.

Data set [8] in a line: chemical reactivity towards primary amines (thin layer chromatography). The conditions noted are these: ethylene diamine in molar excess, TLC. The data set is classed as physicochemical.
[9] abbreviates: Table I, rat, against [3H]PIA, read-out: Ki at central A1 receptors, rat.

For orientation: Ki means the equilibrium dissociation constant of an inhibitor or competing ligand from its target. Take `CCCn1c(=O)c2nc(-c3ccc(OCC(=O)NCCN=C(S)Nc4ccc(N=C=S)cc4)cc3)[nH]c2n(CCC)c1=O` [Compound 4b]: the Ki was 6.6 ± 1.31 nM in data set [1] (setting [9]), 1 nM in data set [2] and 22 nM in data set [5]. Further, in data set [3] (1 h, read-out: remaining receptor binding sites after treatment (of initial density)), the remaining activity at 0.1 µM came to 34%. For the same compound, the “irreversible inhibition of A1-adenosine receptors, rat brain membranes” value in data set [3] (rat brain, result in words) was “irreversibly inhibits A1 -adenosine receptors in membranes form calf brain and from rat brain in a dose-dependent manner”. Moreover, in data set [3] (read-out: % inhib (conc)), the inhibition at 0.1 µM was determined as 63%. In addition, the “irreversible inhibition of central A1-adenosine receptors” value in data set [3] (result in words) is recorded as “behave pharmacologically as irreversible inhibitors of central A1 -adenosine receptors”. Besides, the “adenosine receptor binding sites irreversibly inhibited” value in data set [4] (500 nM, one hour incubation, bovine brain membranes, [3H]XAC binding) worked out at 90%. Also, the “irreversible inhibition of A1-adenosine receptors, calf brain membranes” value in data set [4] (calf/bovine brain, result in words) was “irreversibly inhibits A1 -adenosine receptors in membranes form calf brain and from rat brain in a dose-dependent manner”. Besides, the “covalent labeling of A1-adenosine receptor” value in data set [6] is given as “Specific labeling of the receptor (MW approximately 40,000)”. In addition, in data set [7], the stability to storage entry was “stable to storage at -20 °C”. In data set [8], the “reactivity towards primary amines” value is recorded as “quantitatively reactive towards primary amines”.

Consider `S=C=Nc1cccc(N=C=S)c1` [Compound 5a, 1,3-phenyldiisothiocyanate], for which, in data set [7], the stability to storage entry is given as “stable to storage at room temperature for at least several weeks”.

As for `CCCn1c(=O)c2[nH]c(-c3ccc(OCC(=O)NCCNC(=O)CCCCCCC(=O)ON4C(=O)CCC4=O)cc3)nc2n(CCC)c1=O` [Compound 21], the Ki in data set [1] (setting [9]) was found to be 3.69 ± 0.71 nM; in data set [2] (Table I, calf, against [125I]APNEA, read-out: Ki at central A1 receptors, calf), 15.8 nM. For the same compound, in data set [3] (read-out: % inhib (conc)), the inhibition at 0.5 µM was determined as 40%. Further, in data set [3] (result in words), the “irreversible inhibition of central A1-adenosine receptors” value is “inhibits binding irreversibly”.

As for `O=C(Cc1ccc(NC(=O)Cc2ccc(Nc3ncnc4c3ncn4[C@@H]3O[C@H](CO)[C@@H](O)[C@H]3O)cc2)cc1)NCCNC(=S)Nc1ccc(N=C=S)cc1` [Compound 27], the Ki in data set [1] amounted to 0.47 ± 0.13 nM; in data set [2] it was 0.1 nM. Further, in data set [3] (read-out: % inhib (conc)), the inhibition at 0.05 µM is over 80%. In data set [3] (result in words), the “irreversible inhibition of central A1-adenosine receptors” value is on record as “behave pharmacologically as irreversible inhibitors of central A1 -adenosine receptors”.

As for `O=C(Cc1ccc(NC(=O)Cc2ccc(Nc3ncnc4c3ncn4[C@@H]3O[C@H](CO)[C@@H](O)[C@H]3O)cc2)cc1)NCCNC(=S)Nc1cccc(N=C=S)c1` [Compound 28], the inhibition constant (Ki) in data set [1] came to 0.86 nM; in data set [2], 0.1 nM. Further, in data set [3] (read-out: % inhib (conc)), the inhibition at 0.05 µM was over 80%. Besides, the “irreversible inhibition of central A1-adenosine receptors” value in data set [3] (result in words) is given as “behave pharmacologically as irreversible inhibitors of central A1 -adenosine receptors”.

For the compound `C[C@H](Cc1ccccc1)Nc1ncnc2c1ncn2[C@@H]1O[C@H](CO)[C@@H](O)[C@H]1O` [R-PIA, reference compound], in data set [6], the “covalent labeling of A1-adenosine receptor” value is on record as “blocks the irreversible ligand”.

In data set [5] (rat brain membranes, [3H]XAC), `CCCn1c(=O)c2[nH]c(-c3ccc(OCC(=O)NCCNC(=S)Nc4ccc(NC(=S)NCCN)cc4)cc3)nc2n(CCC)c1=O` [ethylene diamine adduct] yielded a Ki of 18 nM.
